Values quoted from earlier work, collected in patent US20170165286A1, “COMPOSITIONS AND METHODS FOR TREATING DIABETES AND LIVER DISEASES” (Cempra Pharmaceuticals, Inc., priority 2014, published 2017).

Columns and labels:
[1] = reported; cited from earlier work
[2] = reportedly; cited from earlier work

Row | SMILES | QT effect [1] | Liver toxicity [2]
1 | CC[C@H]1OC(=O)[C@H](C)C(=O)[C@H](C)[C@@H](O[C@@H]2O[C@H](C)C[C@H](N(C)C)[C@H]2O)[C@](C)(OC)C[C@@H](C)C(=O)[C@H](C)[C@H]2N(CCCCn3cnc(-c4cccnc4)c3)C(=O)O[C@]12C [telithromycin] | QT positive | –
2 | CC[C@H]1OC(=O)[C@H](C)[C@@H](O[C@H]2C[C@@](C)(OC)[C@@H](O)[C@H](C)O2)[C@H](C)[C@@H](O[C@@H]2O[C@H](C)C[C@H](N(C)C)[C@H]2O)[C@](C)(O)C[C@@H](C)CN(C)[C@H](C)[C@@H](O)[C@]1(C)O [azithromycin] | QT positive | –
3 | CC[C@H]1OC(=O)[C@H](C)[C@@H](O[C@H]2C[C@@](C)(OC)[C@@H](O)[C@H](C)O2)[C@H](C)[C@@H](O[C@@H]2O[C@H](C)C[C@H](N(C)C)[C@H]2O)[C@](C)(OC)C[C@@H](C)C(=O)[C@H](C)[C@@H](O)[C@]1(C)O [clarithromycin] | QT positive | toxic to the liver
